In publication PMC11472320, “Computationally Driven Discovery of a BCR-ABL1 Kinase Inhibitor with Activity in Multidrug-Resistant Chronic Myeloid Leukemia” (Journal of Medicinal Chemistry, 2024):
Like-named read-outs stand apart in the source and are kept apart here.

Key:
[1] = cited from earlier work
[2] = cited from earlier work; remark: listed apart in the source
[3] = test system: Caco-2 cells; assay: Caco-2 permeability
[4] = Metabolic stability in hepatocytes; type: in vitro ADME, human; settings: for hepatocyte CLint: both sexes, read-out: HEPClint (H); for hepatocyte CLint / t1/2 (H): human hepatocytes
From the text: Metabolic stability in hepatocytes
Table S4. Hepatocyte details used in the hepatocyte stability assay.
Human Hepatocytes, Mixed-Gender BiolVT (Cat No. X008001)
Mouse Hepatocytes, Male-Gender BiolVT (Cat No. M005052)

[5] = in vitro; settings: dog, MDCK-MDR1
[6] = test system: MDR1; assay: in vitro; settings: dog, MDCK-MDR1
[7] = test system: MDR1 (P-gp); assay: in vitro; settings: dog, MDCK-MDR1
[8] = Aqueous solubility; type: physicochemical; settings: pH 7.4
[9] = Abraham ANMR value by NMR (CDCl3 vs DMSO-d6); type: physicochemical
From the text: Previously, intramolecular N–H–F hydrogen bonds (HBs) have been proposed as a strategy to reduce P-gp-mediated efflux and improve passive permeability, as highlighted in the discovery of the brain-penetrant EGFR inhibitor, AZD-3759 (Figure 2A).[37]−[40] […] Consistent with this work, we conducted an NMR study of the EGFR inhibitor 7a and the BCR-ABL1 inhibitor 8a in deuterated chloroform (CDCl3) and in the more polar, HB-accepting dimethyl sulfoxide (DMSO-d6). […] This finding is further supported by the lack of ^1JNH-F coupling (≤1 Hz) in 7a and 8a, as contrasted with bona fide intramolecular HBs to fluorine, which typically have ^1JNH-F coupling constants >10 Hz as exemplified by 9 with its ^1JNH-F of 19.1 Hz.[41],[43]

[10] = Lipophilicity logD7.4; type: physicochemical; settings: pH 7.4
[11] = test system: MDCKII-MDR1 cells; assay: MDCKII-MDR1 permeability
[12] = in vitro; settings: human, Caco-2
[13] = test system: Ph+ CML; assay: Activity in Ph+ CML (Figure 2B annotation); type: cell-based; settings: annotation in Figure 2B
[14] = molecular target: BCR-ABL1 wt (Homo sapiens, UniProt P00519); assay: KinaseProfiler enzymatic radiometric kinase assay; settings: read-out: Kinase IC50 BCR-ABL1 wt; [ATP] = 10 µM, n = 2
Chain of BCR-ABL1 wt (P00519 27-1130 limits assumed): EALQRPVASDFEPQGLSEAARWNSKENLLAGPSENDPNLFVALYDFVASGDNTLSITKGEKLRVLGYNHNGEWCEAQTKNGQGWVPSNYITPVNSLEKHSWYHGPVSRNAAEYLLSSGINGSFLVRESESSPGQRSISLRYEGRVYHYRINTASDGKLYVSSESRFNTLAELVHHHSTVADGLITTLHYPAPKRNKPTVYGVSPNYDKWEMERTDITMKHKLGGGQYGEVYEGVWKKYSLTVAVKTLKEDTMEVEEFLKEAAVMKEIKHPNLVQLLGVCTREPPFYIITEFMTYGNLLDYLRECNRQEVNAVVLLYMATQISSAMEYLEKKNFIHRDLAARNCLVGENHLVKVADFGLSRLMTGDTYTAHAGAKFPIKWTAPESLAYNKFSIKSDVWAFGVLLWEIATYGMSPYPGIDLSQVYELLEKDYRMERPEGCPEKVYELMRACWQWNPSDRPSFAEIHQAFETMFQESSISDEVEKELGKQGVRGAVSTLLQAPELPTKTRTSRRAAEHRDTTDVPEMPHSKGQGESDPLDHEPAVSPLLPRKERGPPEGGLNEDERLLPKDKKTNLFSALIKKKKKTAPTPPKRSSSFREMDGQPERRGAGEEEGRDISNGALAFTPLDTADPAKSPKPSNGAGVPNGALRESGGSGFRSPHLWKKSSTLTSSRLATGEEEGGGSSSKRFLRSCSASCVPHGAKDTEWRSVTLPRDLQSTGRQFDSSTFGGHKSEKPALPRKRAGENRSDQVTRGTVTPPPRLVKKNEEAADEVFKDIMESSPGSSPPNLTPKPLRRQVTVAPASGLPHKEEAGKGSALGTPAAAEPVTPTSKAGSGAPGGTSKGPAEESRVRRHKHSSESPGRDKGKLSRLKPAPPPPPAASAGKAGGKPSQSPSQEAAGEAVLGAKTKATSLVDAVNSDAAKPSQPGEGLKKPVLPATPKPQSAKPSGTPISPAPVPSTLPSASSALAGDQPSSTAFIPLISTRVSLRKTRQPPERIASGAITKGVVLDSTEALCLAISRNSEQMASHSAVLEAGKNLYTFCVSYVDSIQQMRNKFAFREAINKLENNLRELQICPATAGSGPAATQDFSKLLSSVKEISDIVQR

[15] = test system: K562 cells; assay: Cell viability assay (CellTiter-Glo); type: cell-based, human
[16] = molecular target: cSRC wt (Homo sapiens, UniProt P12931); assay: KinaseProfiler enzymatic radiometric kinase assay
Chain of cSRC wt (P12931 whole entry): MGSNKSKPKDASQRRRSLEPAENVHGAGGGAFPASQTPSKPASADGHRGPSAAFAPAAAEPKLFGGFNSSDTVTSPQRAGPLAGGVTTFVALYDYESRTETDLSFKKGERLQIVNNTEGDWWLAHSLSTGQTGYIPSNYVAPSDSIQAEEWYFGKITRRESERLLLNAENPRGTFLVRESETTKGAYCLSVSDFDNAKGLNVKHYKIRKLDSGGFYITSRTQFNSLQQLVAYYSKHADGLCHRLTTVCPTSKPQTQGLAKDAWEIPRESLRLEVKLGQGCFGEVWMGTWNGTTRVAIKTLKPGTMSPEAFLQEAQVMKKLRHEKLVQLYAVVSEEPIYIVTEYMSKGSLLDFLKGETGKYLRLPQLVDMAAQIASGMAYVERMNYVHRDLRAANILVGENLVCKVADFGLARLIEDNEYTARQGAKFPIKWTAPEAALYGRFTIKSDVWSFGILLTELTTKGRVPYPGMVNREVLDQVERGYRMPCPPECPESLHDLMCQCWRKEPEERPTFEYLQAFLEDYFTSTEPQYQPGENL

Row | SMILES | Abraham ANMR Value [2] | Recovery% (BL-AP) ([3]; Table S9) [%] | efflux ratio ([3]; Table S9) | Caco-2 Papp (a-b) [3] [×10⁻⁶ cm/s] | Caco-2 Papp (b-a) [3] [×10⁻⁶ cm/s] | Remaining Percentages ([4]; 0.5 min) [%] | Remaining Percentages ([4]; 15 min) [%] | Remaining Percentages ([4]; 30 min) [%] | Remaining Percentages ([4]; 60 min) [%] | Remaining Percentages ([4]; 90 min) [%] | Remaining Percentages ([4]; 120 min) [%] | hepatocyte CLint [4] [µL/min/1e6 cells] | t1/2 (H) [4] [min] | recovery [5] [%] | Papp A→B [6] [×10⁻⁶ cm/s] | Papp B→A [6] [×10⁻⁶ cm/s] | efflux ratio [6] | Papp A→B [7] [×10⁻⁶ cm/s] | Papp B→A [7] [×10⁻⁶ cm/s] | Aq. Sol. [8] [µM] | other results
1 | COc1cc(Nc2c(C#N)cnc3cc(OCCON4CCN(C)CC4)c(OC)cc23)c(Cl)cc1Cl [5a] |  |  |  |  |  |  |  |  |  |  |  |  |  |  |  |  |  |  |  |  | Micronucleus [1]: Negative
2 | COc1c2c(cc3ncnc(Nc4ccccc4)c13)OCCO2 [compound 10] | 0.02 |  |  |  |  |  |  |  |  |  |  |  |  |  |  |  |  |  |  |  | 
3 | COc1cc2c(Nc3cccc(Cl)c3F)c(C#N)cnc2cc1OCCON1CCN(C)CC1 [11a, 4-((3-Chloro-2-fluorophenyl)amino)-6-methoxy-7-(2-((4-methylpiperazin-1-yl)oxy)ethoxy)quinoline-3-carbonitrile] |  | 80.51 | 7.49 | 3.7 | 27.4 | 100.00 | 82.49 | 66.92 | 45.06 | 29.85 | 18.60 | 27.9 | 49.7 | 71.6 | 7.16 | 29.6 | 4.15 | 7.2 | 29.6 | 14 | Abraham ANMR Value (aniline N-H) [9]: 0.40; logD [10]: 3.3; P-gp efflux status [11]: Moderate P-gp Substrate; Recovery% (BL-AP) ([11]; Table S7): 85.59%; MDCKII-MDR1 Efflux Ratio ([11]; n = 2): 4.1; Papp A→B [12]: 3.66 ×10⁻⁶ cm/s; Papp B→A [12]: 27.4 ×10⁻⁶ cm/s; efflux ratio [12]: 7.4; recovery [12]: 60.5%; Activity in Ph+ CML [13]: Poor Activity
4 | COc1cc(Nc2c(C#N)cnc3cc(OCCON4CCN(C)CC4)c(OC)cc23)ccc1Cl [14a] |  | 92.37 | 18.96 | 2 | 37.4 | 100.00 | 83.13 | 68.12 | 50.16 | 37.41 | 25.52 | 22.3 | 62.3 | 75.4 | 4.08 | 24.7 | 6 | 4.1 | 24.7 | 7 | Recovery% (AP-BL) ([3]; Table S9): 65.43%; IC50 [14]: < 1 nM; IC50 ([15]; Homo sapiens, K562, 72 h, read-out: K562 Cell Line IC50 (95% CI), 72 h, n = 3, unadjusted for FBS): 218 nM; IC50 ([15]; read-out: K562 Cell Line IC50 (95% CI), 72 h, n = 3, unadjusted for FBS): 186 nM; logD [10]: 3.1; Recovery% (BL-AP) ([11]; Table S7): 77.51%; efflux ratio ([11]; Table S7): 6.05; Papp A→B [12]: 1.99 ×10⁻⁶ cm/s; Papp B→A [12]: 37.4 ×10⁻⁶ cm/s; efflux ratio [12]: 18.7; IC50 [16]: 2 nM
5 | Fc1c2c(cc3ncnc(Nc4ccccc4)c13)OCCO2 [compound 9] | 0.10 |  |  |  |  |  |  |  |  |  |  |  |  |  |  |  |  |  |  |  | 
